The values that follow are results of earlier work, collected in patent US6183777A (priority 1997, dated 2001).

The structures appear in SMILES notation.

Data set [1] relates to Alzheimer's Disease patients. The note with it: mild to medium AD.
The conditions of data set [2]: in vivo.
For data set [3], the system named is cerebral acetyl choline. The note with it: in particular in the cerebral cortex.

On to `Cl.Nc1c2c(nc3ccccc13)CCCC2` [Tacrine, 1,2,3,4-tetrahydro-9-acridinamine hydrochloride], for which the “oral bioavailability, variation between individuals” value is reported as “may significantly vary in different individuals”. For the same compound, in data set [1], the “memory and recognition of patients” value is “can significantly improve the memory and recognition of patients”. Also, in data set [2], the adverse effects result is “gastro-intestinal side effects, such as nausea, vomiting, diarrhea, dyspepsia and loss of appetite; kinetic ataxia of voluntary muscles and myalgia; sweating and bradycardia induced by overexcitement of vagus nerues”; the hepatoxicity entry is reported as “may cause reversible hepatoxicity”. The “cerebral acetyl choline concentration” value in data set [3] is listed as “may increase cerebral acetyl choline concentration”.
